# In patent US20250059185A1 (Hoffmann-La Roche Inc., priority 2021, published 2025):
# Target: MAGL (Homo sapiens (Human), UniProt Q99685)
# Experiment: 2-AG assay (MAGL inhibitory activity, hydrolysis of 2-arachidonoylglycerol followed by mass spectrometry)
# Type: biochemical
# Conditions: 50 pM MAGL protein, 15 min pre-incubation, 30 min incubation at RT
# Excerpt: Compounds of formula (II) were profiled for MAGL inhibitory activity by determining the enzymatic activity by following the hydrolysis of the natural substrate 2-arachidonoylglycerol (2-AG) resulting in arachidonic acid, which can be followed by mass spectrometry. This assay is hereinafter abbreviated “2-AG assay”.
# Compounds of formula (II) were profiled for MAGL inhibitory activity by determining the enzymatic activity by following the hydrolysis of the natural substrate 2-arachidonoylglycerol (2-AG) resulting in arachidonic acid, which can be followed by mass spectrometry. This assay is hereinafter abbreviated “2-AG assay”. The 2-AG assay was carried out in 384 well polypropylene assay plates. Compound dilutions were made in 100% DMSO in a polypropylene plate in 3-fold dilution steps to give a final concentration range in the assay from 12.5 μM to 0.8 pM. Compound dilutions were added to MAGL protein in assay buffer (50 mM TRIS, 1 mM EDTA, 0.01% (v/v) Tween-20, 2.5% (v/v) DMSO). After shaking, the plate was incubated for 15 min at RT. To start the reaction, 2-arachidonoylglycerol in assay buffer was added. The final concentrations in the assay was 50 pM for MAGL protein and […] 2-arachidonoylglyerol. After shaking and 30 min incubation at RT, the reaction was quenched by the addition of two assay volumes of acetonitrile containing 4 μM of d8-arachidonic acid. The amount of arachidonic acid formed was traced by an online SPE system (Agilent Rapidfire) coupled to a triple quadrupole mass spectrometer. A C18 SPE cartridge (Agilent G9205A) was used in an acetonitrile/water liquid setup. The mass spectrometer was operated in negative electrospray mode following the mass transitions 303.1→259.1 for arachidonic acid and 311.1→267.0 for d8-arachidonic acid. The activity of the compounds was calculated based on the ratio of intensities [arachidonic acid/d8-arachidonic acid].
# MAGL, sequence (Q99685 whole entry, species assumed): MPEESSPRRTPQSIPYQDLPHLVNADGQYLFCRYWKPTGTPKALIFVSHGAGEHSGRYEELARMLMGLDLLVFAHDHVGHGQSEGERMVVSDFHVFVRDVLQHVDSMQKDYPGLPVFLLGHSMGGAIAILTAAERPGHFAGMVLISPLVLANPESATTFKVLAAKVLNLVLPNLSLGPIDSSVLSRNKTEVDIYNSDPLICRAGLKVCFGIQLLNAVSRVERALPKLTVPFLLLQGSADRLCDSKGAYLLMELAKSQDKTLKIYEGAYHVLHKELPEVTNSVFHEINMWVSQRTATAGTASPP
row,SMILES,IC50 [nM]
1,"COc1cccc(C(=O)N2CCc3c(nn(C)c3-c3cc(Cl)cc(C4(NS(C)(=O)=O)CC4)c3)[C@@H]2C)c1Cl [Example 7, N-[1-[3-Chloro-5-[(7S)-6-(2-chloro-3-methoxy-benzoyl)-2,7-dimethyl-5,7-dihydro-4H-pyrazolo[3,4-c]pyridin-3-yl]phenyl]cyclopropyl]methanesulfonamide]",17
2,"COc1cccc(C(=O)N2CCc3c(nn(C)c3-c3cncc(C(F)(F)F)n3)[C@@H]2C)c1Cl [Example 8, (2-Chloro-3-methoxy-phenyl)-[(7S)-2,7-dimethyl-3-[6-(trifluoromethyl)pyrazin-2-yl]-5,7-dihydro-4H-pyrazolo[3,4-c]pyridin-6-yl]methanone]",183
3,"COc1cccc(C(=O)N2CCc3c(nn(C)c3-c3cnc(C(F)(F)F)nc3)[C@@H]2C)c1Cl [Example 9, (2-Chloro-3-methoxy-phenyl)-[(7S)-2,7-dimethyl-3-[2-(trifluoromethyl)pyrimidin-5-yl]-5,7-dihydro-4H-pyrazolo[3,4-c]pyridin-6-yl]methanone]",311
4,"COc1cccc(C(=O)N2CCc3c(nn(C)c3-c3cncc(S(C)(=O)=O)c3)[C@@H]2C)c1Cl [Example 10, (2-Chloro-3-methoxy-phenyl)-[(7S)-2,7-dimethyl-3-(5-methylsulfonyl-3-pyridyl)-5,7-dihydro-4H-pyrazolo[3,4-c]pyridin-6-yl]methanone]",4870
5,"COc1cccc(C(=O)N2CCc3c(nn(C)c3-c3cccc(O)n3)[C@@H]2C)c1Cl [Example 13, (2-Chloro-3-methoxy-phenyl)-[(7S)-3-(6-hydroxy-2-pyridyl)-2,7-dimethyl-5,7-dihydro-4H-pyrazolo[3,4-c]pyridin-6-yl]methanone]",622
6,"COc1cccc(C(=O)N2CCc3c(nn(C)c3-c3cc(Cl)cc(CC(N)=O)c3)[C@@H]2C)c1Cl [Example 14, 2-[3-Chloro-5-[(7S)-6-(2-chloro-3-methoxy-benzoyl)-2,7-dimethyl-5,7-dihydro-4H-pyrazolo[3,4-c]pyridin-3-yl]phenyl]acetamide]",41
7,"COc1cccc(C(=O)N2CCc3c(nn(C)c3-c3cncc(CC(N)=O)c3)[C@@H]2C)c1Cl [Example 18, 2-[5-[(7S)-6-(2-Chloro-3-methoxy-benzoyl)-2,7-dimethyl-5,7-dihydro-4H-pyrazolo[3,4-c]pyridin-3-yl]-3-pyridyl]acetamide]",3080
8,"CC1c2nn(C)c(-c3cc(F)cc(F)c3)c2CCN1C(=O)c1cc(F)cc(N2CC3(C2)CS(=O)(=O)C3)c1Cl (stereo not shown) [Example 19, [2-Chloro-3-(2,2-dioxo-2λ^6-thia-6-azaspiro[3.3]heptan-6-yl)-5-fluoro-phenyl]-[3-(3,5-difluorophenyl)-2,7-dimethyl-5,7-dihydro-4H-pyrazolo[3,4-c]pyridine-6-yl]methanone]",41
9,"C[C@H]1c2nn(C)c(-c3cc(F)cc(F)c3)c2CCN1C(=O)c1cc(F)cc(N2CC3(C2)CS(=O)(=O)C3)c1Cl [Example 20, [2-Chloro-3-(2,2-dioxo-2λ^6-thia-6-azaspiro[3.3]heptan-6-yl)-5-fluoro-phenyl]-[(7S)-3-(3,5-difluorophenyl)-2,7-dimethyl-5,7-dihydro-4H-pyrazolo[3,4-c]pyridine-6-yl]methanone]",27
10,"Cc1c(C(=O)N2CCc3c(nn(C)c3-c3cc(F)cc(F)c3)C2C)cccc1N1CCNC1=O (stereo not shown) [Example 25, 1-[3-[3-(3,5-Difluorophenyl)-2,7-dimethyl-5,7-dihydro-4H-pyrazolo[3,4-c]pyridine-6-carbonyl]-2-methyl-phenyl]imidazolidin-2-one]",892
11,"CC1c2nn(C)c(-c3cc(F)cc(F)c3)c2CCN1C(=O)c1cc(F)cc(C2=NOC(C)(C)C2)c1Cl (stereo not shown) [Example 28, [2-Chloro-3-(5,5-dimethyl-4H-isoxazol-3-yl)-5-fluoro-phenyl]-[3-(3,5-difluorophenyl)-2,7-dimethyl-5,7-dihydro-4H-pyrazolo[3,4-c]pyridin-6-yl]methanone]",385
12,"C[C@H]1c2nn(C)c(-c3cc(F)cc(F)c3)c2CCN1C(=O)c1ncn(-c2cccnc2O)n1 [Example 32, [(7S)-3-(3,5-Difluorophenyl)-2,7-dimethyl-5,7-dihydro-4H-pyrazolo[3,4-c]pyridin-6-yl]-[1-(2-hydroxy-3-pyridyl)-1,2,4-triazol-3-yl]methanone]",232

# The remaining lines, values ahead:
row,IC50 [nM],SMILES
1,464,"COc1cccc(C(=O)N2CCc3c(nn(C)c3CNC3(C(F)(F)F)CC3)[C@@H]2C)c1Cl [Example 11, (2-Chloro-3-methoxy-phenyl)-[(7S)-2,7-dimethyl-3-[[[1-(trifluoromethyl)cyclopropyl]amino]methyl]-5,7-dihydro-4H-pyrazolo[3,4-c]pyridin-6-yl]methanone]"
2,390,"COc1cccc(C(=O)N2CCc3c(nn(C)c3-c3nnc(C(F)(F)F)o3)[C@@H]2C)c1Cl [Example 12, (2-Chloro-3-methoxy-phenyl)-[(7S)-2,7-dimethyl-3-[5-(trifluoromethyl)-1,3,4-oxadiazol-2-yl]-5,7-dihydro-4H-pyrazolo[3,4-c]pyridin-6-yl]methanone]"
3,101,"COc1cccc(C(=O)N2CCc3c(nn(C)c3-c3cc(Cl)cc(C4(C(N)=O)CC4)c3)[C@@H]2C)c1Cl [Example 16, 1-[3-Chloro-5-[(7S)-6-(2-chloro-3-methoxy-benzoyl)-2,7-dimethyl-5,7-dihydro-4H-pyrazolo[3,4-c]pyridin-3-yl]phenyl]cyclopropanecarboxamide]"
4,188,"COc1cccc(C(=O)N2CCc3c(nn(C)c3-c3cc(F)cc(CC(N)=O)c3)[C@@H]2C)c1Cl [Example 17, 2-[3-[(7S)-6-(2-Chloro-3-methoxy-benzoyl)-2,7-dimethyl-5,7-dihydro-4H-pyrazolo[3,4-c]pyridin-3-yl]-5-fluoro-phenyl]acetamide]"
5,1430,"C[C@@H]1c2nn(C)c(-c3cc(F)cc(F)c3)c2CCN1C(=O)c1cc(F)cc(N2CC3(C2)CS(=O)(=O)C3)c1Cl [Example 21, [2-Chloro-3-(2,2-dioxo-2λ^6-thia-6-azaspiro[3.3]heptan-6-yl)-5-fluoro-phenyl]-[(7R)-3-(3,5-difluorophenyl)-2,7-dimethyl-5,7-dihydro-4H-pyrazolo[3,4-c]pyridine-6-yl]methanone]"
6,76,"CC1c2nn(C)c(-c3cc(F)cc(F)c3)c2CCN1C(=O)c1cc(F)cc(N2CC(S(C)(=O)=O)C2)c1Cl (stereo not shown) [Example 22, [2-Chloro-5-fluoro-3-(3-methylsulfonylazetidin-1-yl)phenyl]-[3-(3,5-difluorophenyl)-2,7-dimethyl-5,7-dihydro-4H-pyrazolo[3,4-c]pyridin-6-yl]methanone]"
7,27,"C[C@H]1c2nn(C)c(-c3cc(F)cc(F)c3)c2CCN1C(=O)c1cc(F)cc(N2CC(S(C)(=O)=O)C2)c1Cl [Example 23, [2-Chloro-5-fluoro-3-(3-methylsulfonylazetidin-1-yl)phenyl]-[(7S)-3-(3,5-difluorophenyl)-2,7-dimethyl-5,7-dihydro-4H-pyrazolo[3,4-c]pyridin-6-yl]methanone]"
8,1230,"CC1c2nn(C)c(-c3cc(F)cc(F)c3)c2CCN1C(=O)c1ccccc1Cn1ccnn1 (stereo not shown) [Example 24, [3-(3,5-Difluorophenyl)-2,7-dimethyl-5,7-dihydro-4H-pyrazolo[3,4-c]pyridin-6-yl]-[2-(triazol-1-ylmethyl)phenyl]methanone]"
9,84,"CC1c2nn(C)c(-c3cc(F)cc(F)c3)c2CCN1C(=O)c1cc(-c2cccc(C#N)c2)ccc1F (stereo not shown) [Example 26, 3-[3-[3-(3,5-Difluorophenyl)-2,7-dimethyl-5,7-dihydro-4H-pyrazolo[3,4-c]pyridine-6-carbonyl]-4-fluoro-phenyl]benzonitrile]"
10,88,"CC1c2nn(C)c(-c3cc(F)cc(F)c3)c2CCN1C(=O)c1cc(F)cc(OCC2(C(F)(F)F)CC2)c1Cl (stereo not shown) [Example 27, [2-Chloro-5-fluoro-3-[[1-(trifluoromethyl)cyclopropyl]methoxy]phenyl]-[3-(3,5-difluorophenyl)-2,7-dimethyl-5,7-dihydro-4H-pyrazolo[3,4-c]pyridin-6-yl]methanone]"
11,1,"C[C@H]1c2nn(C)c(-c3cc(F)cc(F)c3)c2CCN1C(=O)c1cc(F)cc(-c2ccc(=O)[nH]c2)c1Cl [Example 29, 5-[2-Chloro-3-[(7S)-3-(3,5-difluorophenyl)-2,7-dimethyl-5,7-dihydro-4H-pyrazolo[3,4-c]pyridine-6-carbonyl]-5-fluoro-phenyl]-1H-pyridin-2-one]"
12,388,"C[C@@H]1c2nn(C)c(-c3cc(F)cc(F)c3)c2CCN1C(=O)c1cc(F)cc(-c2ccc(=O)[nH]c2)c1Cl [Example 30, 5-[2-Chloro-3-[(7R)-3-(3,5-difluorophenyl)-2,7-dimethyl-5,7-dihydro-4H-pyrazolo[3,4-c]pyridine-6-carbonyl]-5-fluoro-phenyl]-1H-pyridin-2-one]"
13,3,"C[C@H]1c2nn(C)c(-c3cc(F)cc(F)c3)c2CCN1C(=O)c1cc(F)cc(-c2cc[nH]c(=O)c2)c1Cl [Example 31, 4-[2-Chloro-3-[(7S)-3-(3,5-difluorophenyl)-2,7-dimethyl-5,7-dihydro-4H-pyrazolo[3,4-c]pyridine-6-carbonyl]-5-fluoro-phenyl]-1H-pyridin-2-one]"
